# Experimental data from patent US10123993B2, “Cyclic ureas as inhibitors of rock” (BRISTOL-MYERS SQUIBB COMPANY, priority 2015, dated 2018).
# Counter-ions that a name gives are not always drawn.
# Target: ROCK2 (Homo sapiens, UniProt O75116)
# Assay: ROCK2 kinase inhibition assay (Caliper LABCHIP, FITC peptide substrate)
# Type: biochemical
# Conditions: 5 μM ATP, 1.5 μM peptide substrate; value ranges
# In short: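 Rho kinase with 5 μM ATP and 1.5 μM FITC-AHA-AKRRRLSSLRA-OH peptide in HEPES pH 7.5, 20 mM MgCl2, 0.015% Brij-35, 4 mM DTT, DMSO <2%. EDTA stop; phospho and non-phospho peptide separated on LabChip. IC50 from dose-response fit.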
# ROCK2, sequence (O75116 whole entry, species assumed): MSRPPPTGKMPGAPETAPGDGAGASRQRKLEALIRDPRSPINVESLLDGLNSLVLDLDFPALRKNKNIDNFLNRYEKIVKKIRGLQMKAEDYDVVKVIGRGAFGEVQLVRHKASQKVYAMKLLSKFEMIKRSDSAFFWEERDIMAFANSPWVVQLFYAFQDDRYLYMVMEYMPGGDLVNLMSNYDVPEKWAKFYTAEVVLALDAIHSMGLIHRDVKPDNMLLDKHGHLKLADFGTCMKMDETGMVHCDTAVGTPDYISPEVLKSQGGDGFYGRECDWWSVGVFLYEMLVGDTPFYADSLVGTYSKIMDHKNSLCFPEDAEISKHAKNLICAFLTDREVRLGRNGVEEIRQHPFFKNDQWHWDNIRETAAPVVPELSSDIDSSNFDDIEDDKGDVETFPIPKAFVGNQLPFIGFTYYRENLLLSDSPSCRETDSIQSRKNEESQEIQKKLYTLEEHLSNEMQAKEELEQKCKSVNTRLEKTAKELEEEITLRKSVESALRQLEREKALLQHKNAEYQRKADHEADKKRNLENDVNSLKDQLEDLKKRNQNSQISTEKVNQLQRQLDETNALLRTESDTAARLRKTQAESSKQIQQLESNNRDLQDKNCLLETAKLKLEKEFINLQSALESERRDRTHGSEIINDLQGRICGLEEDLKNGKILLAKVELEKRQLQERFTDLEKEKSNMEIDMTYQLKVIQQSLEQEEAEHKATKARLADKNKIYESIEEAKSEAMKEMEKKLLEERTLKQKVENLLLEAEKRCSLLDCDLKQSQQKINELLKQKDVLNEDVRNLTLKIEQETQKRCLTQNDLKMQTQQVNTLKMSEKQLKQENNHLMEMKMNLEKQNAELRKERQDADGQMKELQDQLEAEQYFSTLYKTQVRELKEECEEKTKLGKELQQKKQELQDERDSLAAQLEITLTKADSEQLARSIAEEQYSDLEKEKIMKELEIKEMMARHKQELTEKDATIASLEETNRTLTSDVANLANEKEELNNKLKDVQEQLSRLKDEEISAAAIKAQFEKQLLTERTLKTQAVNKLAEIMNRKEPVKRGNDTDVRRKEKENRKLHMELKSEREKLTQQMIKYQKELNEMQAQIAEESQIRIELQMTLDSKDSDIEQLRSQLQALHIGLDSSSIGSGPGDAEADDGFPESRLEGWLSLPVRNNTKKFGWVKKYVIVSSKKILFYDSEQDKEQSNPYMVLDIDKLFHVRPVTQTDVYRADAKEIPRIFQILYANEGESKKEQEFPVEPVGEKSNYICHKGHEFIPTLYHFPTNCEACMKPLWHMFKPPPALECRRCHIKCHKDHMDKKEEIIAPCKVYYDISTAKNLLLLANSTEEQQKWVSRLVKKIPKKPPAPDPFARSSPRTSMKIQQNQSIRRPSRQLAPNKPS
row,IC50 [nM],SMILES
1,2.1 to 20,"COc1cc(N2CC(CO)N(Cc3ccccc3)C2=O)ccc1-c1cn[nH]c1 (stereo not drawn) [Example 41, 3-Benzyl-4-(hydroxymethyl)-1-(3-methoxy-4-(1H-pyrazol-4-yl)phenyl)imidazolidin-2-one]"
2,20.1 to 200,"O=C1N(Cc2cccc(F)c2)CCN1c1ccc(-c2ccncc2F)cc1 [Example 49, 1-(3-fluorobenzyl)-3-(4-(3-fluoropyridin-4-yl)phenyl)imidazolidin-2-one]"
3,20.1 to 200,"COc1cccc(CN2CCN(c3ccc(-c4ccncc4F)cc3)C2=O)c1 [Example 50, 1-(4-(3-fluoropyridin-4-yl)phenyl)-3-(3-methoxybenzyl)imidazolidin-2-one]"
4,200 to 2000,"O=C1N(Cc2cccc(F)c2)CCN1c1ccc(-c2ccnc(F)c2)cc1 [Example 51, 1-(3-fluorobenzyl)-3-(4-(2-fluoropyridin-4-yl)phenyl)imidazolidin-2-one]"
5,20.1 to 200,"O=C1N(Cc2ccccc2)CCN1c1ccc(-c2ccncc2F)cc1 [Example 52, 1-benzyl-3-(4-(3-fluoropyridin-4-yl)phenyl)imidazolidin-2-one]"
6,200 to 2000,"O=C1N(CCc2ccccc2)CCN1c1ccc(-c2ccncc2F)cc1 [Example 53, 1-(4-(3-fluoropyridin-4-yl)phenyl)-3-phenethylimidazolidin-2-one]"
7,20.1 to 200,"COc1cccc(CN2CCN(c3ccc(-c4ccnc(F)c4)cc3)C2=O)c1 [Example 54, 1-(4-(2-fluoropyridin-4-yl)phenyl)-3-(3-methoxybenzyl)imidazolidin-2-one]"
8,20.1 to 200,"O=C1N(Cc2ccccc2)CCN1c1ccc(-c2ccncc2)cc1 [Example 55, 1-benzyl-3-(4-(pyridin-4-yl)phenyl)imidazolidin-2-one, TFA]"
9,20.1 to 200,"O=C1N(Cc2cccc(F)c2)CCN1c1ccc(-c2ccncc2)cc1 [Example 56, 1-(3-fluorobenzyl)-3-(4-(pyridin-4-yl)phenyl)imidazolidin-2-one, TFA]"
10,200 to 2000,"O=C1N(Cc2ccccc2F)CCN1c1ccc(-c2ccncc2)cc1 [Example 57, 1-(2-fluorobenzyl)-3-(4-(pyridin-4-yl)phenyl)imidazolidin-2-one, TFA]"
11,200 to 2000,"COc1ccc(F)c(CN2CCN(c3ccc(-c4ccncc4)c(OC)c3)C2=O)c1 [Example 58, 1-(2-fluoro-5-methoxybenzyl)-3-(3-methoxy-4-(pyridin-4-yl)phenyl)imidazolidin-2-one, TFA]"
12,20.1 to 200,"COc1cc(N2CCN(Cc3cccc(F)c3)C2=O)ccc1-c1ccncc1 [Example 59, 1-(3-fluorobenzyl)-3-(3-methoxy-4-(pyridin-4-yl)phenyl)imidazolidin-2-one, TFA]"
13,20.1 to 200,"O=C1N(Cc2ccccc2)CCN1c1ccc(-c2cnoc2)cc1 [Example 60, 1-benzyl-3-(4-(isoxazol-4-yl)phenyl)imidazolidin-2-one]"
14,200 to 2000,"O=C1N(Cc2cccc(F)c2)CCN1c1ccc(-c2cnoc2)cc1 [Example 61, 1-(3-fluorobenzyl)-3-(4-(isoxazol-4-yl)phenyl)imidazolidin-2-one]"
15,20.1 to 200,"COc1cccc(CN2CCN(c3ccc(-c4ccnc(N)c4)cc3)C2=O)c1 [Example 62, 1-(4-(2-Aminopyridin-4-yl)phenyl)-3-(3-methoxybenzyl)imidazolidin-2-one, TFA]"
16,20.1 to 200,"COc1cccc(CN2CCN(c3ccc(-c4ccnc(N)n4)cc3)C2=O)c1 [Example 63, 1-(4-(2-Aminopyrimidin-4-yl)phenyl)-3-(3-methoxybenzyl)imidazolidin-2-one]"
17,200 to 2000,"COc1cccc(CN2CCN(c3ccc(-c4ncnc5[nH]ccc45)cc3)C2=O)c1 [Example 64, 1-(4-(7H-Pyrrolo[2,3-d]pyrimidin-4-yl)phenyl)-3-(3-methoxybenzyl)imidazolidin-2-one]"

row,IC50 [nM],SMILES
1,2.1 to 20,"COc1cccc(CN2CCN(c3ccc(-c4ccnc5[nH]ccc45)cc3)C2=O)c1 [Example 65, 1-(4-(1H-Pyrrolo[2,3-b]pyridin-4-yl)phenyl)-3-(3-methoxybenzyl)imidazolidin-2-one]"
2,200 to 2000,"COc1ccccc1CCn1ccn(-c2ccc(-c3cn[nH]c3)cc2)c1=O [Example 66, 1-(4-(1H-Pyrazol-4-yl)phenyl)-3-(2-methoxyphenethyl)-1H-imidazol-2(3H)-one]"
3,20.1 to 200,"O=c1n(Cc2ccc(F)cc2)ccn1-c1ccc(-c2cn[nH]c2)cc1 [Example 67, 1-(4-(1H-pyrazol-4-yl)phenyl)-3-(4-fluorobenzyl)-1H-imidazol-2(3H)-one]"
4,20.1 to 200,"O=c1n(Cc2c(F)cccc2F)ccn1-c1ccc(-c2cn[nH]c2)cc1 [Example 68, 1-(4-(1H-pyrazol-4-yl)phenyl)-3-(2,6-difluorobenzyl)-1H-imidazol-2(3H)-one]"
5,20.1 to 200,"O=c1n(Cc2ccccc2F)ccn1-c1ccc(-c2cn[nH]c2)cc1 [Example 69, 1-(4-(1H-pyrazol-4-yl)phenyl)-3-(2-fluorobenzyl)-1H-imidazol-2(3H)-one]"
6,20.1 to 200,"COc1cccc(CN2CC(=O)N(c3ccc(-c4cn[nH]c4)cc3)C2=O)c1 [Example 80, 3-(4-(1H-Pyrazol-4-yl)phenyl)-1-(3-methoxybenzyl)imidazolidine-2,4-dione]"
7,200 to 2000,"O=C1CN(Cc2cccc(F)c2)C(=O)N1c1ccc(-c2cn[nH]c2)cc1 [Example 81, 3-(4-(1H-pyrazol-4-yl)phenyl)-1-(3-fluorobenzyl)imidazolidine-2,4-dione]"
8,20.1 to 200,"O=C1CN(Cc2ccccc2Cl)C(=O)N1c1ccc(-c2cn[nH]c2)cc1 [Example 82, 3-(4-(1H-pyrazol-4-yl)phenyl)-1-(2-chlorobenzyl)imidazolidine-2,4-dione]"
9,200 to 2000,"O=C1CN(Cc2cc(F)ccc2F)C(=O)N1c1ccc(-c2cn[nH]c2)cc1 [Example 83, 3-(4-(1H-pyrazol-4-yl)phenyl)-1-(2,5-difluorobenzyl)imidazolidine-2,4-dione]"
10,20.1 to 200,"COc1cc(F)cc(CN2CC(=O)N(c3ccc(-c4cn[nH]c4)cc3)C2=O)c1 [Example 84, 3-(4-(1H-pyrazol-4-yl)phenyl)-1-(3-fluoro-5-methoxybenzyl)imidazolidine-2,4-dione]"
11,200 to 2000,"O=C1CN(CCc2ccccc2)C(=O)N1c1ccc(-c2cn[nH]c2)cc1 [Example 85, 3-(4-(1H-pyrazol-4-yl)phenyl)-1-phenethylimidazolidine-2,4-dione]"
12,200 to 2000,"O=C1CN(Cc2ccccc2F)C(=O)N1c1ccc(-c2cn[nH]c2)cc1 [Example 86, 3-(4-(1H-pyrazol-4-yl)phenyl)-1-(2-fluorobenzyl)imidazolidine-2,4-dione]"
13,200 to 2000,"O=C1CN(Cc2ccccc2)C(=O)N1c1ccc(-c2cn[nH]c2)cc1 [Example 87, 3-(4-(1H-pyrazol-4-yl)phenyl)-1-benzylimidazolidine-2,4-dione]"
14,200 to 2000,"COc1cc(N2C(=O)CN(Cc3ccccc3)C2=O)ccc1-c1cn[nH]c1 [Example 88, 1-benzyl-3-(3-methoxy-4-(1H-pyrazol-4-yl)phenyl)imidazolidine-2,4-dione]"
15,200 to 2000,"COc1cc(N2C(=O)CN(Cc3ccccc3Cl)C2=O)ccc1-c1cn[nH]c1 [Example 89, 1-(2-chlorobenzyl)-3-(3-methoxy-4-(1H-pyrazol-4-yl)phenyl)imidazolidine-2,4-dione]"
16,20.1 to 200,"COc1cc(N2C(=O)CN(Cc3cccc(F)c3)C2=O)ccc1-c1cn[nH]c1 [Example 90, 1-(3-fluorobenzyl)-3-(3-methoxy-4-(1H-pyrazol-4-yl)phenyl)imidazolidine-2,4-dione]"
